Experimental data reported in patent EP4603105A1, “PHARMACEUTICAL COMPOSITION CONTAINING CYCLIC COMPOUND HAVING SELECTIVE KRAS INHIBITORY EFFECT AGAINST HRAS AND NRAS” (CHUGAI SEIYAKU KABUSHIKI KAISHA, priority 2022, dated 2024).

Tests used:
HRAS wild-type protein = HRAS wild-type protein (Homo sapiens, UniProt P01112); assay: Binding to HRAS by surface plasmon resonance (SPR), KD and KD ratio to KRAS; conditions: ratio of KD value for HRAS wild-type protein to KD value for KRAS (SPR)
How it was run: (§1)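 GDP-bound biotin-Avi RAS captured at ~100–300 RU, 30°C, pH 7.4 HBS containing 10 µM GDP, 10 mM MgCl2, 1 mM DTT, 0.01% Tween 20 and 4% DMSO. KD by 1:1 fitting.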

[1] = target: GDP-bound NRAS wild-type protein (Homo sapiens, UniProt P01111); assay: Binding to NRAS by surface plasmon resonance (SPR), KD and KD ratio to KRAS; conditions: ratio of KD value for GDP-bound NRAS wild-type protein to KD value for KRAS (SPR)
GDP-bound NRAS wild-type protein, sequence (P01111 whole entry): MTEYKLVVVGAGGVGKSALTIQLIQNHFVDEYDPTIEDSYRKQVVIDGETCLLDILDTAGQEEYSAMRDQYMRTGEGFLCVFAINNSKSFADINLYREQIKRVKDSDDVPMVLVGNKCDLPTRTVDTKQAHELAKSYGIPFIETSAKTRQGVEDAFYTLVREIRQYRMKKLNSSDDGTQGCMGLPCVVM
How it was run: as §1

[2] = system: human lung cancer strain NCI-H441; type: cell-based
How it was run: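 Readout: […] after the ATP-based reagent. Compound: serial dilutions in dimethyl sulfoxide.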

HRAS wild-type protein, sequence (P01112 whole entry): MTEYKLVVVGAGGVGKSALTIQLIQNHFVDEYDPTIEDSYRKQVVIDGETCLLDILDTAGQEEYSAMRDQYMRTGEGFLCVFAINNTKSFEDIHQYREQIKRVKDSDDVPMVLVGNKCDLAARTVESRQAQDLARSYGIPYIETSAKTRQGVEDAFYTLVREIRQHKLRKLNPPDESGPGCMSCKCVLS

Row | SMILES | HRAS /KRAS (HRAS wild-type protein) | NRAS /KRAS [1] | IC50 [2]
1 | CCO[C@@H]1C[C@H]2C(=O)NC3(CCC3)C(=O)N(C)[C@@H](C3CCCC3)C(=O)N(C)[C@H](C(=O)N(C)CC)CC(=O)N(C)[C@H]3CCC/C=C/c4ccc(cc4)C[C@@H](C(=O)N(C)CC(=O)N[C@@H](CCc4ccc(C(F)(F)F)c(OC)c4)C(=O)N2C1)N1CC/C=C\C[C@@H](C1=O)N(C)C(=O)CN(C)C(=O)[C@H]([C@@H](C)CC)NC3=O [PP1834] | B (a compound having 3 or more and less than 10 is denoted as B) | A (a compound having 10 or more and less than 20 is denoted as A) | 2.1 nM
2 | CCO[C@@H]1C[C@H]2C(=O)NC3(CC(C)(C)C3)C(=O)N(C)[C@@H](C3CCCC3)C(=O)N(C)[C@H](C(=O)N(C)CC)CC(=O)N(C)[C@H]3CCC/C=C/c4ccc(cc4)C[C@@H](C(=O)N(C)CC(=O)N[C@@H](CCc4cc(F)c(C(F)(F)F)c(F)c4)C(=O)N2C1)N1CC/C=C\C[C@@H](C1=O)N(C)C(=O)CN(C)C(=O)[C@H]([C@@H](C)CC)NC3=O [PP1835] | B (a compound having 3 or more and less than 10 is denoted as B) | A (a compound having 10 or more and less than 20 is denoted as A) | 4.9 nM
3 | CC[C@H](C)[C@@H]1NC(=O)[C@H](CC)N(C)C(=O)C[C@@H](C(=O)N(C)C)N(C)C(=O)[C@H](C2CCCC2)N(C)C(=O)C2(CC(C)(C)C2)NC(=O)[C@@H]2C[C@H](C)CN2C(=O)[C@H](CCc2ccc(C(F)(F)F)c(OC)c2)NC(=O)CN(C)C(=O)[C@H](Cc2ccc(C)cc2)N2CC/C=C\C[C@@H](C2=O)N(C)C(=O)CN(C)C1=O [PP1836] | B (a compound having 3 or more and less than 10 is denoted as B) | A (a compound having 10 or more and less than 20 is denoted as A) | 10.7 nM
4 | CC[C@H](C)[C@@H]1NC(=O)[C@H](CC(F)F)N(C)C(=O)C[C@@H](C(=O)N(C)CC)N(C)C(=O)[C@H](C2CCCC2)N(C)C(=O)C2(CC(C)(C)C2)NC(=O)[C@@H]2C[C@@H](C)CN2C(=O)[C@H](CCc2ccc(C(F)(F)F)c(Cl)c2)NC(=O)CN(C)C(=O)[C@H](Cc2ccc(C)cc2)N2CC/C=C\C[C@@H](C2=O)N(C)C(=O)CN(C)C1=O [PP1837] | A (a compound having 10 or more and less than 20 is denoted as A) | A (a compound having 10 or more and less than 20 is denoted as A) | 15.6 nM
5 | CC[C@H](C)[C@@H]1NC(=O)[C@H](CC)N(C)C(=O)C[C@@H](C(=O)N(C)C)N(C)C(=O)[C@H](C2CCCC2)N(C)C(=O)C2(CC(C)(C)C2)NC(=O)[C@@H]2C[C@@H](C)CN2C(=O)[C@H](CCc2ccc(C(F)(F)F)c(OC)c2)NC(=O)CN(C)C(=O)[C@H](Cc2ccc(C)cc2)N2CC/C=C\C[C@@H](C2=O)N(C)C(=O)CN(C)C1=O [PP1838] | A (a compound having 10 or more and less than 20 is denoted as A) | A (a compound having 10 or more and less than 20 is denoted as A) | 20 nM
6 | CC[C@H](C)[C@@H]1NC(=O)[C@H](CC)N(C)C(=O)C[C@@H](C(=O)N(CC)CC)N(C)C(=O)[C@H](C2CCCC2)N(C)C(=O)C2(CC(C)(C)C2)NC(=O)[C@@H]2C[C@H](C)CN2C(=O)[C@H](CCc2ccc(C(F)(F)F)c(OC)c2)NC(=O)CN(C)C(=O)[C@H](Cc2ccc(C)cc2)N2CC/C=C\C[C@@H](C2=O)N(C)C(=O)CN(C)C1=O [PP1839] | B (a compound having 3 or more and less than 10 is denoted as B) | A (a compound having 10 or more and less than 20 is denoted as A) | 24.3 nM
7 | CC[C@H](C)[C@@H]1NC(=O)[C@H](CC)N(C)C(=O)C[C@@H](C(=O)N(CC)CC)N(C)C(=O)[C@H](C2CCCC2)N(C)C(=O)C2(CC(C)(C)C2)NC(=O)[C@@H]2C[C@@H](C)CN2C(=O)[C@H](CCc2ccc(C(F)(F)F)c(OC)c2)NC(=O)CN(C)C(=O)[C@H](Cc2ccc(C)cc2)N2CC/C=C\C[C@@H](C2=O)N(C)C(=O)CN(C)C1=O [PP1841] | A (a compound having 10 or more and less than 20 is denoted as A) | AA (a compound having 20 or more is denoted as AA) | 24.3 nM
8 | CC[C@H](C)[C@@H]1NC(=O)[C@H](CC)N(C)C(=O)C[C@@H](C(=O)N(C)C)N(C)C(=O)[C@H](C2CCCC2)N(C)C(=O)C2(CC(C)(C)C2)NC(=O)[C@@H]2C[C@H](C)CN2C(=O)[C@H](CCc2ccc(C(F)(F)F)c(Cl)c2)NC(=O)CN(C)C(=O)[C@H](Cc2ccc(C)cc2)N2CC/C=C\C[C@@H](C2=O)N(C)C(=O)CN(C)C1=O [PP1844] | B (a compound having 3 or more and less than 10 is denoted as B) | A (a compound having 10 or more and less than 20 is denoted as A) | 12.3 nM
9 | CC[C@H](C)[C@@H]1NC(=O)[C@H](CC(C)C)N(C)C(=O)C[C@@H](C(=O)N(C)C)N(C)C(=O)[C@H](C2CCCC2)N(C)C(=O)C2(CCC2)NC(=O)[C@@H]2C[C@@H](C)CN2C(=O)[C@H](CCc2ccc(C(F)(F)F)c(Cl)c2)NC(=O)CN(C)C(=O)[C@H](Cc2ccc(C)cc2)N2CC/C=C\C[C@@H](C2=O)N(C)C(=O)CN(C)C1=O [PP1854] | A (a compound having 10 or more and less than 20 is denoted as A) | A (a compound having 10 or more and less than 20 is denoted as A) | 5.2 nM
10 | CC[C@H](C)[C@@H]1NC(=O)[C@H](CC)N(C)C(=O)C[C@@H](C(=O)N(C)CC)N(C)C(=O)[C@H](C2CCCC2)N(C)C(=O)C2(CCC2)NC(=O)[C@@H]2C[C@@H](C)CN2C(=O)[C@H](CCc2ccc(C(F)(F)F)c(OC)c2)NC(=O)CN(C)C(=O)[C@H](Cc2ccc(C)cc2)N2CC/C=C\C[C@@H](C2=O)N(C)C(=O)CN(C)C1=O [PP1855] | A (a compound having 10 or more and less than 20 is denoted as A) | AA (a compound having 20 or more is denoted as AA) | 17.7 nM
11 | CC[C@H](C)[C@@H]1NC(=O)[C@H](CC)N(C)C(=O)C[C@@H](C(=O)N(C)C)N(C)C(=O)[C@H](C2CCCC2)N(C)C(=O)C2(CC(C)(C)C2)NC(=O)[C@@H]2C[C@H](C)CN2C(=O)[C@H](CCc2cc(F)c(C(F)(F)F)c(F)c2)NC(=O)CN(C)C(=O)[C@H](Cc2ccc(C)cc2)N2CC/C=C\C[C@@H](C2=O)N(C)C(=O)CN(C)C1=O [PP1856] | A (a compound having 10 or more and less than 20 is denoted as A) | A (a compound having 10 or more and less than 20 is denoted as A) | 1.4 nM
12 | CC[C@H](C)[C@@H]1NC(=O)[C@H](CC2CC2)N(C)C(=O)C[C@@H](C(=O)N(C)C)N(C)C(=O)[C@H](C2CCCC2)N(C)C(=O)C2(CCC2)NC(=O)[C@@H]2C[C@@H](C)CN2C(=O)[C@H](CCc2ccc(C(F)(F)F)c(OC)c2)NC(=O)CN(C)C(=O)[C@H](Cc2ccc(C)cc2)N2CC/C=C\C[C@@H](C2=O)N(C)C(=O)CN(C)C1=O [PP1863] | A (a compound having 10 or more and less than 20 is denoted as A) | A (a compound having 10 or more and less than 20 is denoted as A) | 88.8 nM
13 | CC[C@H](C)[C@@H]1NC(=O)[C@H](CC(C)C)N(C)C(=O)C[C@@H](C(=O)N(C)C)N(C)C(=O)[C@H](C2CCCC2)N(C)C(=O)C2(CCC2)NC(=O)[C@@H]2C[C@H](C)CN2C(=O)[C@H](CCc2cc(F)c(C(F)(F)F)c(F)c2)NC(=O)CN(C)C(=O)[C@H](Cc2ccc(C)cc2)N2CC/C=C\C[C@@H](C2=O)N(C)C(=O)CN(C)C1=O [PP1864] | B (a compound having 3 or more and less than 10 is denoted as B) | A (a compound having 10 or more and less than 20 is denoted as A) | 10.2 nM
14 | CC[C@H](C)[C@@H]1NC(=O)[C@H](CC(C)C)N(C)C(=O)C[C@@H](C(=O)N(C)C)N(C)C(=O)[C@H](C2CCCC2)N(C)C(=O)C2(CCC2)NC(=O)[C@@H]2C[C@@H](C)CN2C(=O)[C@H](CCc2cc(F)c(C(F)(F)F)c(F)c2)NC(=O)CN(C)C(=O)[C@H](Cc2ccc(C)cc2)N2CC/C=C\C[C@@H](C2=O)N(C)C(=O)CN(C)C1=O [PP1866] | B (a compound having 3 or more and less than 10 is denoted as B) | A (a compound having 10 or more and less than 20 is denoted as A) | 11.1 nM
15 | CC[C@H](C)[C@@H]1NC(=O)[C@H](CC(C)C)N(C)C(=O)C[C@@H](C(=O)N(C)C)N(C)C(=O)[C@H](C2CCCC2)N(C)C(=O)C2(CCC2)NC(=O)[C@@H]2C[C@@H](C)CN2C(=O)[C@H](CCc2ccc(C(F)(F)F)c(OC)c2)NC(=O)CN(C)C(=O)[C@H](Cc2ccc(C)cc2)N2CC/C=C\C[C@@H](C2=O)N(C)C(=O)CN(C)C1=O [PP1867] | B (a compound having 3 or more and less than 10 is denoted as B) | A (a compound having 10 or more and less than 20 is denoted as A) | 47.8 nM
16 | CCO[C@@H]1C[C@H]2C(=O)NC3(CCC3)C(=O)N(C)[C@@H](C3CCCC3)C(=O)N(C)[C@H](C(=O)N(C)CC)CC(=O)N(C)[C@@H](CC)C(=O)N[C@@H]([C@@H](C)CC)C(=O)N(C)CC(=O)N(C)[C@H]3C/C=C\CCN(C3=O)[C@@H](Cc3ccc(C)cc3)C(=O)N(C)CC(=O)N[C@@H](CCc3ccc(C(F)(F)F)c(OC)c3)C(=O)N2C1 [PP1869] | A (a compound having 10 or more and less than 20 is denoted as A) | A (a compound having 10 or more and less than 20 is denoted as A) | 36.4 nM
